The source of these data is ChEMBL document CHEMBL4152345, “Discovery of Novel 1,3,8-Triazaspiro[4.5]decane Derivatives That Target the c Subunit of F1/FO-Adenosine Triphosphate (ATP) Synthase for the Treatment of Reperfusion Damage in Myocardial Infarction” (J Med Chem, 2018).

Molecules are shown by their SMILES. Activity calls are given as the source filed them. No cut-off for these calls is given here.

One may read the inhibition as the relative decrease from the control value, in per cent.

The test system of data set [1] is HeLa. The experiment in a line: Inhibition of F1F0-ATP synthase subunit C in human HeLa cells assessed as reduction of ionomycin-induced Ca2+ mediated mPTP opening at 1 uM preincubated for 30 secs followed by ionomycin addition by calcein-cobalt based assay relative to control. Format: cell-based.
The subject of data set [2] is HeLa. The experiment in a line: Reduction in mitochondrial ATP content in human HeLa cells expressing mitochondrially targeted Photinus pyralis luciferase at 1 uM by luciferin-luciferase assay. It counts as ADME, cell-based.
The species named for another data set is Homo sapiens. Put plainly: Binding affinity of F1F0-ATP synthase c subunit in isolated mitochondria of human HeLa cells after 30 mins by UPLC-XEVO-TQD analysis.
Data set [3] is described as follows: Drug uptake in human HeLa cells mitochondrial fraction by HPLC-HRMS analysis. It counts as ADME, mitochondria, Mitochondria.
Data set [4] in a line: Drug uptake in human HeLa cells endoplasmic reticulam fraction by HPLC-HRMS analysis. It counts as ADME, subcellular.
The species entered for a further data set is Mus musculus. Put plainly: Inhibition of Inhibition of F1F0-ATP synthase subunit C in SV129 mouse liver mitochondria assessed as reduction of Ca2+ induced mPTP opening by measuring reduction in mitochondrial swelling at 1 uM measured after 10 mins relative to control.
The subject of data set [5] is HeLa. The experiment in a line: Binding affinity of F1F0-ATP synthase c subunit in human HeLa cells at 60 to 80 degC after 30 mins by cellular thermal shift assay. It counts as cell-based.
For data set [6], the target named is ATP synthase F(1) complex subunit alpha, mitochondrial (Homo sapiens) (UniProt P25705). The experiment in a line: Binding affinity of ATP5A in human HeLa cells assessed as melting temperature after 30 mins by cellular thermal shift assay. It counts as cell-based.
The nature of data set [7]: Drug uptake in human HeLa cells cytosolic fraction by HPLC-HRMS analysis. Particulars: cytosol. Format: ADME, subcellular.
Data set [8] has as its system HeLa. The experiment in a line: Reduction in mitochondrial ATP content in human HeLa cells expressing mitochondrially targeted Photinus pyralis luciferase at 1 uM in presence of 100 um histamine by luciferin-luciferase assay. Format: ADME, cell-based.
The nature of data set [9]: Drug uptake in human HeLa cells mitochondrial fraction assessed as retention time by HPLC-HRMS analysis. It counts as ADME, mitochondria, Mitochondria.
Data set [10] relates to HeLa. The experiment in a line: Effect on mitochondrial calcium uptake in human HeLa cells after 24 hrs by aequorin luminometric analysis. It counts as ADME, cell-based.
Data set [11] has as its system HeLa. Put plainly: Effect on basal mitochondrial membrane potential in human HeLa cells by TMRM dye based fluorescence assay. It counts as ADME, cell-based.
Data set [12] deals with HeLa. The experiment in a line: Inhibition of F1F0-ATP synthase subunit C in human HeLa cells assessed as enzyme dimerization by measuring mitochondrial permeability transition at 1 uM by PLA based assay. Format: cell-based.
Data set [13] relates to HeLa. The experiment in a line: Cytotoxicity against human HeLa cells assessed as reduction in cell viability at 1 to 10 uM after 24 to 48 hrs by MTT assay. Format: cell-based.
Data set [14] concerns HeLa. The experiment in a line: Effect on number of mitochondria in human HeLa cells after 24 hrs by mtCherry staining based microscopic analysis. Format: ADME, cell-based.
In data set [15] the test system is HeLa. Put plainly: Inhibition of F1F0-ATP synthase subunit C in human HeLa cells assessed as reduction in apoptosis by TUNEL assay. Format: cell-based.
Data set [16] relates to HeLa. The experiment in a line: Effect on mitochondrial morphology in human HeLa cells after 24 hrs by mtCherry staining based microscopic analysis. It counts as ADME, cell-based.
Data set [17] concerns HeLa. The experiment in a line: Cytotoxicity against human HeLa cells assessed as reduction in cell viability at 1 to 10 uM after 72 hrs by MTT assay. Format: cell-based. On the technique in general: Formazan colour is commonly taken as a measure of viable cells.
Data set [18] deals with HeLa. The experiment in a line: Inhibition of F1F0-ATP synthase subunit C in human HeLa cells assessed as reduction of cytC release at 1 uM after 5 mins by immunoblot analysis. Format: cell-based. For orientation: A western blot detects proteins with antibodies after separation by electrophoresis.
The subject of data set [19] is HeLa. The experiment in a line: Effect on network volume of mitochondria in human HeLa cells after 24 hrs by calcin staining based microscopic analysis. Format: ADME, cell-based.
The subject of data set [20] is Heart. The experiment in a line: Cardioprotective activity in Langendorff perfused Wistar rat heart model of ischemia-reperfusion injury model assessed as reduction of coronary perfusion pressure at 10 uM dosed during first 10 mins reflow. It counts as functional. The arrangement: scale not given: the % may be the effect or the level left.
Data set [21] deals with Heart. Put plainly: Cardioprotective activity in Langendorff perfused Wistar rat heart model of ischemia-reperfusion injury model assessed as reduction of end diastolic pressure at 10 uM dosed during first 10 mins reflow. It counts as functional. The arrangement: scale not given: the % may be the effect or the level left.
The test system of data set [22] is Heart. The experiment in a line: Cardioprotective activity in Langendorff perfused Wistar rat heart model of ischemia-reperfusion injury model assessed as reduction of apoptosis at 10 uM dosed during first 10 mins reflow by TUNEL assay. Format: functional.
The subject of data set [23] is Heart. Put plainly: Cardioprotective activity in Langendorff perfused Wistar rat heart model of ischemia-reperfusion injury model assessed as increase left ventricular developed pressure at 10 uM dosed during first 10 mins reflow. Format: functional.

Chain of ATP synthase F(1) complex subunit alpha, mitochondrial (Homo sapiens) (P25705 whole entry, one chain of several): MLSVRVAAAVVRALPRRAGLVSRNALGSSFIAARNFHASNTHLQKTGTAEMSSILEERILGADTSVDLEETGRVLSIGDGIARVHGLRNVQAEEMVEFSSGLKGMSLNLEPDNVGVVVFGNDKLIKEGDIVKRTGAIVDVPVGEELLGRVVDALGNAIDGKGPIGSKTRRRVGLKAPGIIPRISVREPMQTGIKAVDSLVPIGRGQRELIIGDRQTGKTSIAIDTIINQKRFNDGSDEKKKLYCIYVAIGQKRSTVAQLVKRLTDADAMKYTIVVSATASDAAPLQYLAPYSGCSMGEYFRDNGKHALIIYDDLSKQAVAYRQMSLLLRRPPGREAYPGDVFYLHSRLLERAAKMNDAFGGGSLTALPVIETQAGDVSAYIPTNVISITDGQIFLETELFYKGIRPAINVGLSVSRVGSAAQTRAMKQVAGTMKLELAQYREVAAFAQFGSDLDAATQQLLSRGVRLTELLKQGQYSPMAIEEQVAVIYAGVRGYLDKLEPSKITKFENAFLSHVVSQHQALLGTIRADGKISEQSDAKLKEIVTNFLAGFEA

As for `COc1ccc(N2C=NC(=O)C23CCN(Cc2ccccc2)CC3)cc1`, the inhibition in the data set with HeLa [1] was 43.8%.

For the compound `Cc1ccc(S(=O)(=O)N2CCC3(CC2)C(=O)NCN3c2ccccc2)cc1`, the Activity result with HeLa [2] and in the data set on HeLa [8] was “Toxic” in each case. For the same compound, the outcome in the data set listed under Homo sapiens and with HeLa [5] was Active. For the same compound, the Drug uptake result in data set [3] is “Active”; in data set [4], “Not Active”; in data set [7], “Not Active”. Further, in the data set on HeLa [1], the inhibition was 30.7 to 50%. Further, the inhibition entry in the data set filed under Mus musculus was “Active”. Moreover, the outcome in [6] was inactive. In addition, the Retention_time in [9] is on record as 8.2 min.

Turning to `CC(C)c1ccc(N2C=NC(=O)C23CCN(Cc2ccccc2)CC3)cc1`, the inhibition in the data set with HeLa [1] was 6.5%.

Turning to `CCC1/C=C/C=C/C[C@H](C)[C@@H](O)[C@](C)(O)C(=O)[C@@H](C)[C@H](O)[C@@H](C)C(=O)[C@H](C)[C@@H](O)[C@H](C)/C=C/C(=O)OC2[C@@H](C)C(CC1)OC1(CC[C@@H](C)C(C[C@H](C)O)O1)[C@@H]2C` (stereo not given in full), the Drug uptake result in [3], in [4] and in data set [7] was “Active” each time.

As to `O=C1N=CN(c2ccccc2)C12CCN(Cc1ccccc1)CC2`, in the data set with HeLa [1], the inhibition is 41.4%.

As for `O=C1NCN(c2ccccc2)C12CCN(S(=O)(=O)c1ccc(F)cc1)CC2`, the inhibition in the data set on HeLa [1] is 45.5%.

In the case of `COc1ccc(N2CNC(=O)C23CCN(Cc2ccccc2)CC3)cc1`, the inhibition in the data set on HeLa [1] was 26.2%.

With `O=C(NC1CCCCC1)N1CCC2(CC1)C(=O)NCN2c1ccccc1`, the inhibition in the data set with HeLa [1] was 51.3%.

As to `O=C1NCN(c2ccc(F)cc2)C12CCN(S(=O)(=O)c1ccc(Cl)s1)CC2`, the inhibition with HeLa [1] is 12.6%.

As for `CS(=O)(=O)N1CCC2(CC1)C(=O)NCN2c1ccccc1`, in the data set with HeLa [1], the inhibition was 47.5%.

As for `O=C1NCN(c2ccc(F)cc2)C12CCN(Cc1ccccc1)CC2`, the inhibition in the data set with HeLa [1] is 42.9%.

Consider `O=C1NCN(c2ccccc2)C12CCN(Cc1ccccc1)CC2`, for which, in the data set with HeLa [1], the inhibition was 36.8%.

As for `O=C1N=CN(c2cccc(C(F)(F)F)c2)C12CCN(Cc1ccccc1)CC2`, the inhibition in the data set with HeLa [1] was 32.1%.

On to `O=C1NCN(c2ccccc2)C12CCN(C(=S)NC1CCCCC1)CC2`, for which the inhibition in the data set with HeLa [1] was 33.6%.

Regarding `O=C(Nc1ccccc1)N1CCC2(CC1)C(=O)NCN2c1ccccc1`, in the data set on HeLa [1], the inhibition result is “inactive”.

Regarding `O=C1NCN(c2cccc(C(F)(F)F)c2)C12CCN(Cc1ccccc1)CC2`, the Activity entry in the data set with HeLa [2], in the data set on HeLa [10], in the data set on HeLa [11], with HeLa [13], in the data set on HeLa [14] and in the data set on HeLa [16] was “Non-Toxic” in each case. The results for the Activity result in the data set with HeLa [17], in the data set with HeLa [19] and with HeLa [8] were “Toxic”, “Non-Toxic” and “Non-Toxic”, respectively. The inhibition entry in the data set with HeLa [12], in the data set on HeLa [15], in the data set filed under Mus musculus and with HeLa [18] was “Active” in each case. Moreover, in the data set on HeLa [1], the inhibition is 65.5%.

Consider `O=C1NCN(c2ccc(Cl)cc2)C12CCN(Cc1ccccc1)CC2`, for which the inhibition with HeLa [1] is 51.4%.

With `O=C1NCN(c2ccccc2)C12CCN(S(=O)(=O)c1ccc(Cl)s1)CC2`, the Activity result is “Non-Toxic” in the data set with HeLa [2]; “Non-Toxic” with HeLa [10]; “Non-Toxic” with HeLa [11]; 17.5% in the data set on Heart [20]; “Non-Toxic” in the data set on HeLa [13]; 72% in the data set on Heart [21]. Further, the Activity entry in the data set with HeLa [14] is “Non-Toxic”; in the data set on HeLa [16], “Non-Toxic”; with HeLa [17] it was “Toxic”; in the data set with HeLa [19], “Non-Toxic”; with HeLa [8], “Non-Toxic”; in the data set with Heart [23], 36.4%. Besides, the inhibition result in the data set with HeLa [12], with HeLa [15], in the data set filed under Mus musculus and in the data set on HeLa [18] was “Active” in each case. The inhibition in the data set on HeLa [1] is 66.8%. Besides, the outcome with Heart [22] was Active.

Take `Cc1ccc(N2C=NC(=O)C23CCN(Cc2ccccc2)CC3)cc1`: the inhibition in the data set with HeLa [1] was 18.7%.

For `O=C(c1ccccc1)N1CCC2(CC1)C(=O)NCN2c1ccccc1`, in the data set with HeLa [1], the inhibition was 43.9%.

Turning to `CC(=O)N1CCC2(CC1)C(=O)NCN2c1ccccc1`, the inhibition with HeLa [1] is 47.9%.

In the case of `O=C1N=CN(c2ccc(F)cc2)C12CCN(Cc1ccccc1)CC2`, the inhibition with HeLa [1] was 28.8%.

Take `O=C1NCN(c2ccc(F)cc2)C12CCN(S(=O)(=O)c1ccc(F)cc1)CC2`: the inhibition with HeLa [1] is 9.1%.

For the compound `O=C1N=CN(c2ccc(Cl)cc2)C12CCN(Cc1ccccc1)CC2`, the Activity entry in the data set with HeLa [2] was “Toxic”; with HeLa [10] it was “Non-Toxic”; in the data set on HeLa [11], “Non-Toxic”; in the data set on HeLa [13], “Non-Toxic”; with HeLa [14], “Non-Toxic”; in the data set with HeLa [16], “Non-Toxic”. Moreover, the Activity result is reported as “Toxic” with HeLa [17], “Non-Toxic” in the data set on HeLa [19] and “Non-Toxic” in the data set with HeLa [8]. Moreover, in the data set with HeLa [1], the inhibition is 57.4%. Further, the inhibition result in the data set with HeLa [15], in the data set listed under Mus musculus and in the data set on HeLa [18] was “Active” in each case.

As to `Cc1ccc(N2CNC(=O)C23CCN(Cc2ccccc2)CC3)cc1`, the inhibition in the data set with HeLa [1] is 18.1%.

On to `CC(C)c1ccc(N2CNC(=O)C23CCN(Cc2ccccc2)CC3)cc1`, for which the inhibition in the data set with HeLa [1] was 20%.
